Patent publication US20260125400A1, “TYK2 DEGRADERS AND USES THEREOF” (Kymera Therapeutics, Inc., priority 2023, published 2026)
Read-outs that look alike come from different tables or passages of the source.

Biological target: T1, TYK2 (Homo sapiens, UniProt P29597)
T1 construct: Degradation of TYK2 in cells was quantitatively measured using Meso Scale Discovery (MSD) technology; endogenous in cells; host or cells: OCI-LY10
Assay: TYK2 MSD degradation in OCI-LY10 cells
Type: cell-based
Conditions: 4 to 24 hours incubation; for DC50: read-out: TYK2 MSD OCI-LY10 Rel-DC50
Method in brief: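 Cellular TYK2 levels were measured by Meso Scale Discovery sandwich detection in RIPA lysates of OCI-LY10 cells exposed 4 to 24 hours at 37° C to nine 1:3 compound doses starting at 1 to 10 μM final; dose-response fitted by four-parameter regression.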

[1] = TYK2 degradation in OCI-LY10 cells

T1 sequence (P29597 whole entry): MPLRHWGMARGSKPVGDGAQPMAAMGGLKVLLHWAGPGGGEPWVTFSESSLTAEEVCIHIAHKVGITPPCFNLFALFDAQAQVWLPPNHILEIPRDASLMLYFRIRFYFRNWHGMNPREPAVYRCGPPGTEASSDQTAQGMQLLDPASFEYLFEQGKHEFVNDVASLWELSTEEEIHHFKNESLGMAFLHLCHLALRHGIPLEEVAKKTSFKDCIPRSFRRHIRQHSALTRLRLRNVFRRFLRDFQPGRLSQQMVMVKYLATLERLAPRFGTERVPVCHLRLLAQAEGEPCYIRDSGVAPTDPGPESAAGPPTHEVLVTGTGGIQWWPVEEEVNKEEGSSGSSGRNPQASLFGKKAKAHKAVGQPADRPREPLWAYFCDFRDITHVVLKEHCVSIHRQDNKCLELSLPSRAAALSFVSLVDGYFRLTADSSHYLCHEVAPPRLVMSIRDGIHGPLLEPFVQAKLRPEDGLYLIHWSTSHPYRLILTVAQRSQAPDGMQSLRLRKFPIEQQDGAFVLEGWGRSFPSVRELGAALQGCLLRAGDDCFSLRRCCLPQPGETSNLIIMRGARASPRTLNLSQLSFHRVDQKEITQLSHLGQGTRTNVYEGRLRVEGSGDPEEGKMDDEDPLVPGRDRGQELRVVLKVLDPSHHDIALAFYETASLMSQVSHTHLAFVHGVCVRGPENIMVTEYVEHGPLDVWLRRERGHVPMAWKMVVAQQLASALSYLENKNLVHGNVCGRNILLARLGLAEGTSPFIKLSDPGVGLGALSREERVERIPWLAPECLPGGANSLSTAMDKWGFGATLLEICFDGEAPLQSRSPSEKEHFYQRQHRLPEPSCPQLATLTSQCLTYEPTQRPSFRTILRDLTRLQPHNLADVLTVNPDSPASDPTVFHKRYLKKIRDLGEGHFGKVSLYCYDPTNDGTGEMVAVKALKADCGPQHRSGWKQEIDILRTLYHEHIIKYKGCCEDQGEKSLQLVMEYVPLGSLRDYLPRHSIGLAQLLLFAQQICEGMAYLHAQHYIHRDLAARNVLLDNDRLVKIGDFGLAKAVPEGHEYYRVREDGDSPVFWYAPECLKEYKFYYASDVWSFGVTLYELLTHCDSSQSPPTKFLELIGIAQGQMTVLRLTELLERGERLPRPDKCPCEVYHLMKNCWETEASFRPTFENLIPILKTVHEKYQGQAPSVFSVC

SMILES | TYK2 MSD OCI-LY10 Dmax % (OCI-LY10 cells) | DC50 (OCI-LY10 cells) [nM] | TYK2 MSD OCI-LY10 Dmax % [1] | DC50 [1] [nM]
CNc1cc(N2CCc3c(CN4CCC(N5CCC6(CCN(C(=O)c7cc(Cl)c(OC)c(N8CCC(=O)NC8=O)c7)CC6)CC5)C(F)(F)C4)cccc32)nn2c(C(=O)N[C@@H]3C[C@@H]3F)cnc12 (some centres unmarked) [I-764] | B (B (90 to >75%)) | < 10 | – | –
CNc1cc(N2CCc3c(-c4ccc(CN5CCC(N6CCN(c7ccc(C8CCC(=O)NC8=O)c(Cl)c7)CC6)C(F)(F)C5)cn4)cccc32)nn2c(C(=O)N[C@H]3C[C@H]3F)cnc12 (some centres unmarked) [I-83] | – | – | D (D (<50%)) | < 10
CNc1cc(N2CCc3c(C#CCN4CCC(N5CC6(CCN(C(=O)c7ccc(Cl)c(N8CCC(=O)NC8=O)c7)CC6)C5)C(F)(F)C4)cccc32)nn2c(C(=O)N[C@@H]3C[C@@H]3F)cnc12 (some centres unmarked) [I-701] | A (A (>90%)) | < 1 | – | –
CNc1cc(N2CCc3c(-c4cc(CN5CCN(c6ccn7c(N8CCC(=O)NC8=O)cnc7c6)CC5)ccn4)cccc32)nn2c(C(=O)N[C@@H]3C[C@@H]3F)cnc12 [I-719] | C (C (75 to 50%)) | < 10 | – | –
CNc1cc(N2CCc3c(-c4ccc(OC5CC6(CCN(C(=O)c7cc(C)c(Cl)c(N8CCC(=O)NC8=O)c7)CC6)C5)cn4)cccc32)nn2c(C(=O)N[C@@H]3C[C@@H]3F)cnc12 [I-1017] | – | – | B (B (90 to >75%)) | < 10
CNc1cc(N2CCc3c(-c4ccc(CN5CCC(N6CCN(c7ccc8c(c7F)n(C)c(=O)n8C7CCC(=O)NC7=O)CC6)C(F)(F)C5)cn4)cccc32)nn2c(C(=O)NC3CC3)cnc12 (centres unmarked) [I-69] | – | – | B (B (90 to >75%)) | < 10
CNc1cc(N2CCc3c(-c4ccc(CC5CC6(CCN(C(=O)c7cc(F)c(Cl)c(N8CCC(=O)NC8=O)c7)CC6)C5)cn4)cccc32)nn2c(C(=O)N[C@@H]3CC[C@H]3OC)cnc12 [I-1104] | – | – | A (A (>90%)) | < 10
CNc1cc(N2CCc3c(-c4ccc(CN5CCC(N6CCC(COc7ccc(Cl)c(N8CCC(=O)NC8=O)c7)CC6)CC5)cn4)cccc32)nn2c(C(=O)NC3CCC3OC)cnc12 (centres unmarked) [I-1006] | – | – | B (B (90 to >75%)) | < 10
CNc1cc(N2CCc3c(-c4ccc(CN5CC6(CCN(Cc7ccc(N8CCC(=O)NC8=O)c(Cl)c7)CC6(F)F)C5)cn4)cccc32)nn2c(C(=O)N[C@H]3C[C@H]3F)cnc12 [I-87] | – | – | D (D (<50%)) | < 10
CNc1cc(N2CCc3c(-c4ncc(CN5CC6(CCN(C(=O)c7cc(N8CCC(=O)NC8=O)c(C)cn7)CC6(F)F)C5)cc4F)cc(F)cc32)nn2c(C(=O)N[C@@H]3C[C@@H]3F)cnc12 [I-971] | – | – | B (B (90 to >75%)) | < 1
CNc1cc(N2CCc3c(-c4ccc(CN5CC6(CCC(N(C)c7ccc(Cl)c(N8CCC(=O)NC8=O)c7)CC6)C5)cn4)cccc32)nn2c(C(=O)N[C@@H]3CC[C@H]3OC)cnc12 [I-752] | B (B (90 to >75%)) | < 10 | – | –
CNc1cc(N2CCc3c(-c4cc(CN5CCN(c6ccc7c(c6F)n(C)c(=O)n7C6CCC(=O)NC6=O)CC5)ccn4)cccc32)nn2c(C(N)=O)cnc12 (centres unmarked) [I-81] | – | – | B (B (90 to >75%)) | < 1
CNc1cc(N2CCc3c(C4CCCN(CC5CN(c6ccc7c(c6)n(C)c(=O)n7C6CCC(=O)NC6=O)C5)C4)cccc32)nn2c(C(=O)NC3CC3)cnc12 (centres unmarked) [I-45] | – | – | C (C (75 to 50%)) | < 1
CNc1cc(N2CC3(CCN(c4ccc5c(c4)n(C)c(=O)n5C4CCC(=O)NC4=O)CC3)c3ccccc32)nn2c(C(=O)NC3CC3)cnc12 (centres unmarked) [I-42] | – | – | D (D (<50%)) | > 100
CNc1cc(N2CCc3c(CN4CCC(N5CCC6(CCN(C(=O)c7cc(F)c(OC)c(N8CCC(=O)NC8=O)c7)CC6)CC5)C(F)(F)C4)cccc32)nn2c(C(=O)N[C@@H]3C[C@@H]3F)cnc12 (some centres unmarked) [I-769] | B (B (90 to >75%)) | < 10 | – | –
CNc1cc(N2CCc3c(CN4CCC(N5CC(N6CCN(c7ccc8c(c7)n(C)c(=O)n8C7CCC(=O)NC7=O)CC6)C5)C(F)(F)C4)cccc32)nn2c(C(=O)N[C@@H]3C[C@@H]3F)cnc12 (some centres unmarked) [I-72] | – | – | B (B (90 to >75%)) | < 1
CNc1cc(N2CCc3c(-c4ccc(CN5CC6(CCN(C(=O)c7cnc(C)c(N8CCC(=O)NC8=O)c7)CC6)C5)cn4)cccc32)nn2c(C(=O)N[C@@H]3C[C@@H]3F)cnc12 [I-351] | – | – | B (B (90 to >75%)) | < 1
CNc1cc(N2CCc3c(CN4CCC(N5CC(N6CCN(c7cccc8c(N9CCC(=O)NC9=O)nn(C)c78)CC6)C5)C(F)(F)C4)cccc32)nn2c(C(=O)N[C@@H]3C[C@@H]3F)cnc12 (some centres unmarked) [I-903] | – | – | B (B (90 to >75%)) | < 10
CNc1cc(N2CCc3c(-c4ncc(CN5CC6(CCN(C(=O)c7ccc(OC)c(N8CCC(=O)NC8=O)c7)CC6(F)F)C5)cc4F)cccc32)nn2c(C(=O)N[C@@H]3C[C@@H]3F)cnc12 [I-1019] | – | – | A (A (>90%)) | < 1

SMILES | TYK2 MSD OCI-LY10 Dmax % (OCI-LY10 cells) | DC50 (OCI-LY10 cells) [nM] | TYK2 MSD OCI-LY10 Dmax % [1] | DC50 [1] [nM]
CNc1cc(N2CCc3c(-c4ccc(CN5CCC(N6CCN(c7ccc8c(c7)n(C)c(=O)n8C7CCC(=O)NC7=O)CC6)CC5)cn4)cccc32)nn2c(C(=O)N[C@@H]3C[C@@H]3F)cnc12 (some centres unmarked) [I-1] | – | – | B (B (90 to >75%)) | < 1
CNc1cc(N2CCc3c(CN4CCC(N5CCC6(CCN(C(=O)c7cc(F)c(C)c(N8CCC(=O)NC8=O)c7)CC6)CC5)C(F)(F)C4)cccc32)nn2c(C(=O)N[C@@H]3C[C@@H]3F)cnc12 (some centres unmarked) [I-843] | – | – | A (A (>90%)) | < 1
CNc1cc(N2CCc3c(-c4ccc(CN5CC6(CCN(C(=O)c7cc(N8CCC(=O)NC8=O)c(C)cn7)CC6)C5)cn4)cccc32)nn2c(C(=O)N[C@@H]3C[C@@H]3F)cnc12 [I-782] | A (A (>90%)) | < 1 | – | –
CNc1cc(N2CCc3c(-c4ncc(CN5CC6(CCN(C(=O)c7cc(C)c(Cl)c(N8CCC(=O)NC8=O)c7)CC6(F)F)C5)cc4F)cccc32)nn2c(C(=O)NC3CCC3)cnc12 [I-991] | – | – | B (B (90 to >75%)) | < 10
CNc1cc(N2CCc3c(-c4ccc(OCCC5CCN(C(=O)c6ccc(Cl)c(N7CCC(=O)NC7=O)c6)CC5)cn4)cccc32)nn2c(C(=O)N[C@@H]3C[C@@H]3F)cnc12 [I-617] | C (C (75 to 50%)) | < 10 | – | –
CNc1cc(N2CCc3c(-c4ccc(CN5CCC6(CCN(C(=O)c7ccc(C(F)(F)F)c(N8CCC(=O)NC8=O)c7)CC6)C(F)(F)C5)cn4)cccc32)nn2c(C(=O)N[C@@H]3C[C@@H]3F)cnc12 [I-978] | – | – | D (D (<50%)) | < 10
CNc1cc(N2CCc3c(CN4CC[C@H](N5CCC6(CC5)CN(C(=O)c5cc(Cl)c(C)c(N7CCC(=O)NC7=O)c5)C6)C(F)(F)C4)cccc32)nn2c(C(=O)N[C@@H]3CC[C@H]3OC)cnc12 [I-1142] | – | – | A (A (>90%)) | < 1
CNc1cc(N2CCc3c(-c4ccc(CN5CC6(CCN(C(=O)c7ccc(Cl)c(N8CCC(=O)NC8=O)c7)CC6)C5)nc4)cccc32)nn2c(C(=O)N[C@@H]3C[C@@H]3F)cnc12 [I-247] | – | – | B (B (90 to >75%)) | < 10
CNc1cc(N2CCc3c(CN4CCC(N5CCC(N6CCN(c7ccc8c(c7)n(C)c(=O)n8C7CCC(=O)NC7=O)CC6)CC5)C(F)(F)C4)cccc32)nn2c(C(=O)NC3CC3)cnc12 (centres unmarked) [I-62] | – | – | B (B (90 to >75%)) | < 1
CNc1cc(N2CCc3c(-c4ccc(CN5CC6(CCN(Cc7ccc(Cl)c(N8CCC(=O)NC8=O)c7)CC6(F)F)C5)cn4)cccc32)nn2c(C(=O)N[C@@H]3C[C@@H]3F)cnc12 [I-369] | – | – | D (D (<50%)) | > 100
CNc1cc(N2CCc3c(-c4ccc(CN5CC6(CCN(C(=O)c7ccc(C(F)F)c(N8CCC(=O)NC8=O)c7)CC6(F)F)C5)cn4)cccc32)nn2c(C(=O)N[C@@H]3C[C@@H]3F)cnc12 [I-977] | – | – | C (C (75 to 50%)) | < 10
CNc1cc(N2CCc3c(CN4CCC5(CC4)CCN(C(=O)c4ccc(Cl)c(N6CCC(=O)NC6=O)c4)CC5)cccc32)nn2c(C(=O)NC3CC3)cnc12 [I-58] | – | – | D (D (<50%)) | > 100
CNc1cc(N2CCc3c(-c4cnc(CN5CC6(CCN(C(=O)c7ccc(Cl)c(N8CCC(=O)NC8=O)c7)CC6)C5)nc4)cccc32)nn2c(C(=O)N[C@@H]3C[C@@H]3F)cnc12 [I-465] | B (B (90 to >75%)) | < 10 | – | –
CCNC(=O)c1nnc(Nc2ccc(CN3CC4(CCN(c5cccc6c5n(C)c(=O)n6C5CCC(=O)NC5=O)CC4(F)F)C3)cn2)cc1Nc1cccc(F)c1OC (centres unmarked) [I-92] | – | – | C (C (75 to 50%)) | 10 to 100
CNc1cc(N2CCc3c(-c4ccc(CN5CCC6(CC5)CCN(C(=O)c5ccc(Cl)c(C7CCC(=O)NC7=O)c5)CC6)cn4)cccc32)nn2c(C(=O)N[C@@H]3C[C@@H]3F)cnc12 (some centres unmarked) [I-91] | – | – | B (B (90 to >75%)) | < 1
CNc1cc(N2CCc3c(-c4ccc(CN5CCC6(CCN(C(=O)c7cc(F)c(OC)c(N8CCC(=O)NC8=O)c7)CC6)C(F)(F)C5)cn4)cccc32)nn2c(C(=O)N[C@@H]3C[C@@H]3F)cnc12 [I-776] | B (B (90 to >75%)) | < 10 | – | –
CNc1cc(N2CCc3c(CN4CCC5(CC4)CCN(C4CCN(C(=O)c6ccc(Cl)c(N7CCC(=O)NC7=O)c6)CC4)CC5(F)F)cccc32)nn2c(C(=O)N[C@@H]3C[C@@H]3F)cnc12 [I-833] | – | – | B (B (90 to >75%)) | < 10
CNc1cc(N2CCc3c(CN4CCC5(CCN(C6CCN(C(=O)c7ccc(Cl)c(N8CCC(=O)NC8=O)c7)CC6)CC5)C(F)(F)C4)cccc32)nn2c(C(=O)N[C@@H]3C[C@@H]3F)cnc12 [I-836] | – | – | B (B (90 to >75%)) | < 10
